Assay results from US8541575B2, “3,4-diarylpyrazoles as protein kinase inhibitors” (Nerviano Medical Sciences S.R.L., priority 2008, dated 2013).

Key:
Assay type in all cases: cell-based
[1] = system: human melanoma cells Mewo (with wild-type B-Raf); assay: In vitro cell proliferation assay, Mewo; details: 72 hours treatment, cellular ATP readout
Description: (§1) In Vitro Cell Proliferation Assay
(§2) Exponentially growing human melanoma cells A375 (with a mutated B-RAF) and human melanoma cells Mewo (with wild-type B-Raf) were seeded and incubated at 37° C. in a humidified 5% CO2 atmosphere. After 24 hours, scalar doses of the compound were added to the medium and cells oncubated for 72 hours. At the end of treatment, cells were washed and counted. Cell number was determined by a cellular adenosine triphosphate monitoring system. Cell proliferation was compared to control cells and the concentration inhibiting cell growth by 50% was calculated.

[2] = system: p-MAPK (T202/Y204) in A375 human melanoma cells, having a mutated B-RAF; assay: p-MAPK (T202/Y204) ArrayScan assay; details: A-375, treated 1.5 or 2 hours, p-MAPK cytoplasmatic fluorescence, read-out: Array Scan A375 IC50
Description: p-MAPK (T202/Y204) ArrayScan Assay
A375 human melanoma cells, having a mutated B-RAF, are seeded in 384-well poly-lysine coated plates (Matrix) at a density of 1000 cells/well with appropriate medium supplemented with 10% FCS and incubated for 16-24 hours. Cells are treated for 1.5 or 2 hours with increasing doses of compounds (starting dose 10 μM, dilution factor 2.5). At the end of the treatment cells are fixed with p-formaldehyde 3.7% for 15-30 min, then washed twice with D-PBS […] and permeabilized with D-PBS containing 0.1% Triton X-100 and 1% BSA (Sigma-Aldrich) for 15 minutes at room temperature (staining solution). Anti-phospho-MAPK (T202/Y204) monoclonal antibody E10 (Cell Signaling, cat. #9106) diluted 1:100 is added in staining solution and incubated for 1 hour at 37° C. After removal of the primary antibody solution, the anti-mouse Cy™2-conjugated (Green) secondary antibody (Amersham) diluted 1:500 in staining solution containing 2 μg/ml DAPI is added. The plate is incubated for 1 hour at 37° C., washed twice and then red with Cellomics' ArrayScan VTI (4 fields/well, CytoNucTrans algorithm).
The parameter “MEAN_RingAvgIntenCh2”, which measures the mean cytoplasmatic fluorescence intensity associated to p-MAPK staining, is reported as the final result.

[3] = system: human melanoma cells A375 (with a mutated B-RAF); assay: In vitro cell proliferation assay, A375; details: A-375, 72 hours treatment, cellular ATP readout
Description: as §1, §2

Row | Compound | IC50 [1] [nM] | IC50 [2] [nM] | IC50 [3] [nM]
1 | O=C(CCCO)Nc1cc(-c2c[nH]nc2-c2cccc(NC(=O)Nc3ccc(C(F)(F)F)cc3)c2)ccn1 [compound 43, 4-hydroxy-N-(4-{3-[3-({[4-(trifluoromethyl)phenyl]carbamoyl}amino)phenyl]-1H-pyrazol-4-yl}pyridin-2-yl)butanamide] | > 10000 | 410 | 3500
2 | CCNc1cc(-c2c[nH]nc2-c2c(F)ccc(NS(=O)(=O)c3cc(F)ccc3F)c2F)ccn1 [compound 54, N-{3-[4-(2-Ethylamino-pyridin-4-yl)-1H-pyrazol-3-yl]-2,4-difluoro-phenyl}-2,5-difluoro-benzenesulfonamide] | > 10000 | 310 | 970
3 | CCOC(=O)n1cc(-c2ccncc2)c(-c2cccc(NC(=O)Nc3ccc(C(F)(F)F)cc3)c2)n1 [Cmpd. 47, 4-Pyridin-4-yl-3-{3-[3-(4-trifluoromethyl-phenyl)-ureido]-phenyl}-pyrazole-1-carboxylic acid ethyl ester] | > 10000 | 750 | 2660
4 | Cc1ccc(NC(=O)Nc2cccc(-c3n[nH]cc3-c3ccncc3)c2)cc1 [compound 8, 1-[3-(4-Pyridin-4-yl-1H-pyrazol-3-yl)-phenyl]-3-p-tolyl-urea] | > 10000 | 1450 | 4480
5 | CCn1cc(-c2ccncc2)c(-c2c(F)ccc(NS(=O)(=O)c3cccc(F)c3)c2F)n1 [Cmpd. 58, N-[3-(1-Ethyl-4-pyridin-4-yl-1H-pyrazol-3-yl)-2,4-difluoro-phenyl]-3-fluoro-benzenesulfonamide] | > 10000 | 40 | 290
6 | Cn1cc(-c2ccncc2)c(-c2c(F)ccc(NS(=O)(=O)c3cc(F)ccc3F)c2F)n1 [compound 52, N-[3-(1-Methyl-4-pyridin-4-yl-1H-pyrazol-3-yl)-2,4-difluoro-phenyl]-2,5-difluoro-benzenesulfonamide] | > 10000 | < 10 | 160
7 | CC(C)Cn1cc(-c2ccncc2)c(-c2c(F)ccc(NS(=O)(=O)c3cc(F)ccc3F)c2F)n1 [compound 56, N-[3-(1-i-Butyl-4-pyridin-4-yl-1H-pyrazol-3-yl)-2,4-difluoro-phenyl]-2,5-difluoro-benzenesulfonamide] | > 10000 | < 10 | < 20
8 | CCn1cc(-c2ccncc2)c(-c2c(F)ccc(NS(=O)(=O)c3cc(F)ccc3F)c2F)n1 [Cmpd. 51, N-[3-(1-Ethyl-4-pyridin-4-yl-1H-pyrazol-3-yl)-2,4-difluoro-phenyl]-2,5-difluoro-benzenesulfonamide] | > 10000 | < 10 | < 20
9 | Nc1cc(-c2c[nH]nc2-c2cccc(NC(=O)Nc3ccc(C(F)(F)F)cc3)c2)ccn1 [compound 12, 1-{3-[4-(2-aminopyridin-4-yl)-1H-pyrazol-3-yl]phenyl}-3-[4(trifluoromethyl)-phenyl]urea] | > 10000 | 4650 | 5960
10 | O=C(Cc1ccc(C(F)(F)F)cc1)Nc1cccc(-c2n[nH]cc2-c2ccncc2)c1 [Cmpd. 16, N-[3-(4-Pyridin-4-yl-1H-pyrazol-3-yl)-phenyl]-2-(4-trifluoromethyl-phenyl)-acetamide] | > 10000 | 1340 | 2890
11 | O=C(Nc1ccc(Cl)cc1)Nc1cccc(-c2n[nH]cc2-c2ccncc2)c1 [compound 9, 1-(4-Chloro-phenyl)-3-[3-(4-pyridin-4-yl-1H-pyrazol-3-yl)-phenyl]-urea] | > 10000 | 4800 | 4100
12 | O=S(=O)(Nc1cccc(-c2n[nH]cc2-c2ccncc2)c1)c1cc(F)ccc1F [Cmpd. 2, 2,5-Difluoro-N-[3-(4-pyridin-4-yl-1H-pyrazol-3-yl)-phenyl]-benzenesulfonamide] | > 10000 | 640 | 1400
13 | O=S(=O)(Nc1cccc(-c2n[nH]cc2-c2ccncc2)c1)c1ccco1 [Cmpd. 6, Furan-2-sulfonic acid [3-(4-pyridin-4-yl-1H-pyrazol-3-yl)-phenyl]amide] | > 10000 | 5470 | 7520
14 | CCC(=O)Nc1cc(-c2c[nH]nc2-c2cccc(NC(=O)Nc3ccc(C(F)(F)F)cc3)c2)ccn1 [compound 39, N-(4-{3-[3-({[4-(trifluoromethyl)phenyl]carbamoyl}amino)phenyl]-1H-pyrazol-4-yl}pyridin-2-yl)propanamide] | > 10000 | 2320 | 1140
15 | CCn1cc(-c2ccncc2)c(-c2c(F)ccc(NS(=O)(=O)c3ccccc3F)c2F)n1 [Cmpd. 57, N-[3-(1-Ethyl-4-pyridin-4-yl-1H-pyrazol-3-yl)-2,4-difluoro-phenyl]-2-fluoro-benzenesulfonamide] | > 10000 | 20 | 330
16 | Nc1nccc(-c2c[nH]nc2-c2cccc(NS(=O)(=O)c3cc(F)ccc3F)c2)n1 [compound 34, N-{3-[4-(2-aminopyrimidin-4-yl)-1H-pyrazol-3-yl]phenyl}-2,5-difluorobenzene-sulfonamide] | > 10000 | 340 | 3180
17 | CCCS(=O)(=O)Nc1ccc(F)c(-c2n[nH]cc2-c2ccncc2)c1F [Cmpd. 21, Propane-1-sulfonic acid [2,4-difluoro-3-(4-pyridin-4-yl-1H-pyrazol-3-yl)-phenyl]-amide] | > 10000 | 1790 | 4280

Now from value to molecule:

Row | IC50 [1] [nM] | IC50 [2] [nM] | IC50 [3] [nM] | Compound
18 | > 10000 | 870 | 1750 | CNc1cc(-c2c[nH]nc2-c2c(F)ccc(NS(=O)(=O)c3cc(F)ccc3F)c2F)ccn1 [compound 53, N-{2,4-Difluoro-3-[4-(2-methylamino-pyridin-4-yl)-1H-pyrazol-3-yl]-phenyl}-2,5-difluoro-benzenesulfonamide]
19 | 5090 | 1120 | 1900 | CC(C)Cn1cc(-c2ccncc2)c(-c2cccc(NC(=O)Nc3ccc(C(F)(F)F)cc3)c2)n1 [Cmpd. 50, 1-[3-(1-Isobutyl-4-pyridin-4-yl-1H-pyrazol-3-yl)-phenyl]-3-(4-trifluoromethyl-phenyl)-urea]
20 | > 10000 | 5520 | 7380 | O=S(=O)(Nc1cccc(-c2n[nH]cc2-c2ccncc2)c1)c1ccsc1 [Cmpd. 7, Thiophene-3-sulfonic acid [3-(4-pyridin-4-yl-1H-pyrazol-3-yl)-phenyl]-amide]
21 | > 10000 | 730 | 2700 | Nc1nccc(-c2c[nH]nc2-c2cccc(NC(=O)Nc3ccc(C(F)(F)F)cc3)c2)n1 [compound 31, 1-{3-[4-(2-aminopyrimidin-4-yl)-1H-pyrazol-3-yl]phenyl}-3-[4-(trifluoromethyl)-phenyl]urea]
22 | > 10000 | 360 | 720 | O=S(=O)(Nc1ccc(F)c(-c2n[nH]cc2-c2ccncc2)c1F)c1cc(F)ccc1F [Cmpd. 18, N-[2,4-Difluoro-3-(4-pyridin-4-yl-1H-pyrazol-3-yl)-phenyl]-2,5-difluoro-benzenesulfonamide]
23 | > 10000 | 5480 | 9140 | O=S(=O)(Nc1ccc(F)c(-c2n[nH]cc2-c2ccncc2)c1F)c1ccco1 [Cmpd. 20, Furan-2-sulfonic acid [2,4-difluoro-3-(4-pyridin-4-yl-1H-pyrazol-3-yl)-phenyl]amide]
24 | > 10000 | 1790 | 3860 | Cn1cc(-c2ccncc2)c(-c2cccc(NC(=O)Nc3ccc(C(F)(F)F)cc3)c2)n1 [Cmpd. 48, 1-[3-(1-Methyl-4-pyridin-4-yl-1H-pyrazol-3-yl)-phenyl]-3-(4-trifluoromethyl-phenyl)-urea]
25 | 8600 | 930 | 1020 | O=C(Nc1ccc(C(F)(F)F)cc1)Nc1cccc(-c2n[nH]cc2-c2ccncc2)c1 [Cmpd. 1, 1-[3-(4-Pyridin-4-yl-1H-pyrazol-3-yl)-phenyl]-3-(4-trifluoromethyl-phenyl)-urea]
26 | 7500 | 540 | 1630 | CCn1cc(-c2ccncc2)c(-c2cccc(NC(=O)Nc3ccc(C(F)(F)F)cc3)c2)n1 [compound 10, 1-[3-(1-Ethyl-4-pyridin-4-yl-1H-pyrazol-3-yl)-phenyl]-3-(4-trifluoromethyl-phenyl)-urea]
27 | 8110 | 560 | 1380 | O=C(Nc1ccc(C(F)(F)F)cc1)Nc1cccc(-c2nn(CCF)cc2-c2ccncc2)c1 [Cmpd. 13, 1-{3-[1-(2-Fluoro-ethyl)-4-pyridin-4-yl-1H-pyrazol-3-yl]-phenyl}-3-(4-trifluoromethyl-phenyl)-urea]
